What was measured:
[1] = molecular target: Carbonic anhydrase 2 (Homo sapiens, UniProt P00918)
[2] = molecular target: Carbonic anhydrase 1 (Homo sapiens, UniProt P00915)
Description: Inhibition of human carbonic anhydrase 1 by stopped flow CO2 hydration assay

[3] = molecular target: T1, Carbonic anhydrase 15 (Mus musculus, UniProt Q99N23)
T1 sequence (Q99N23 whole entry): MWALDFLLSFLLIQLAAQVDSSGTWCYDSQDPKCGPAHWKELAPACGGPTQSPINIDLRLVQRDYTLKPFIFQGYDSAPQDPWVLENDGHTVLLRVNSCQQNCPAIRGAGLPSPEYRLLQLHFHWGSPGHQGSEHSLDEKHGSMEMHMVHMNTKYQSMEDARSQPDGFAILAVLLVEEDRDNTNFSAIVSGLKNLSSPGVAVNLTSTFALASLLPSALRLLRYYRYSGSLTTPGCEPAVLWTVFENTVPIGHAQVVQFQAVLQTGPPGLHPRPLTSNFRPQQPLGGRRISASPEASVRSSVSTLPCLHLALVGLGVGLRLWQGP

[4] = molecular target: Carbonic anhydrase 12 (Homo sapiens, UniProt O43570)
[5] = molecular target: Carbonic anhydrase 3 (Homo sapiens, UniProt P07451)
[6] = molecular target: Carbonic anhydrase 7 (Homo sapiens, UniProt P43166)
[7] = molecular target: Carbonic anhydrase 9 (Homo sapiens, UniProt Q16790)
[8] = molecular target: Carbonic anhydrase 14 (Homo sapiens, UniProt Q9ULX7)
[9] = molecular target: Carbonic anhydrase 6 (Homo sapiens, UniProt P23280)
[10] = molecular target: Carbonic anhydrase 13 (Mus musculus, UniProt Q9D6N1)
[11] = molecular target: Carbonic anhydrase 5B, mitochondrial (Homo sapiens, UniProt Q9Y2D0)
[12] = molecular target: Carbonic anhydrase 5A, mitochondrial (Homo sapiens, UniProt P35218)
[13] = molecular target: Carbonic anhydrase 4 (Homo sapiens, UniProt P22748)
Sequence of Carbonic anhydrase 4 (P22748 whole entry): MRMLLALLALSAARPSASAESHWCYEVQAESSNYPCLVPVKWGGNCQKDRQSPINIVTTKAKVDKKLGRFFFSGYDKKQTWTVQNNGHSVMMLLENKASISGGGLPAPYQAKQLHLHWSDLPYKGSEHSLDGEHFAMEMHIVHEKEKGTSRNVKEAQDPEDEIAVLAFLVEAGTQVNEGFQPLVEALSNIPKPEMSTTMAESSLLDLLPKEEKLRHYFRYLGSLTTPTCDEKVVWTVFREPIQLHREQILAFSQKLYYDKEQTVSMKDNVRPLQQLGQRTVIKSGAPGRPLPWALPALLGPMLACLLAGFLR

Sequence of Carbonic anhydrase 6 (P23280 whole entry): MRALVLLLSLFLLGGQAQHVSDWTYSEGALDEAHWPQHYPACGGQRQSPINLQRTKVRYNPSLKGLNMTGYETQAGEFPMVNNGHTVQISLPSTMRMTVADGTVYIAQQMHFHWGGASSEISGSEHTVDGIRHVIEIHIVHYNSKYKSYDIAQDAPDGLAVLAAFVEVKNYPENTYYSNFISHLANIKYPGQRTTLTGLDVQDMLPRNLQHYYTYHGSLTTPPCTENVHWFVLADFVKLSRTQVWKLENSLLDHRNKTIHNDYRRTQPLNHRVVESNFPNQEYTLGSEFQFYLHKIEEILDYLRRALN
Sequence of Carbonic anhydrase 3 (P07451 whole entry): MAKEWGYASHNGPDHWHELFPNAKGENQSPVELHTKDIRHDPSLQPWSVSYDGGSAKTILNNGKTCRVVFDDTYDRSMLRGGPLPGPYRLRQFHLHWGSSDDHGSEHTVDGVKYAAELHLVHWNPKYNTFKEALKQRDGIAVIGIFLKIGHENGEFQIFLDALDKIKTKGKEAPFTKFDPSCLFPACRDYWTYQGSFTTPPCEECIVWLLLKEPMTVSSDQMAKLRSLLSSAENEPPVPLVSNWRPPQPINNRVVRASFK
Sequence of Carbonic anhydrase 12 (O43570 whole entry): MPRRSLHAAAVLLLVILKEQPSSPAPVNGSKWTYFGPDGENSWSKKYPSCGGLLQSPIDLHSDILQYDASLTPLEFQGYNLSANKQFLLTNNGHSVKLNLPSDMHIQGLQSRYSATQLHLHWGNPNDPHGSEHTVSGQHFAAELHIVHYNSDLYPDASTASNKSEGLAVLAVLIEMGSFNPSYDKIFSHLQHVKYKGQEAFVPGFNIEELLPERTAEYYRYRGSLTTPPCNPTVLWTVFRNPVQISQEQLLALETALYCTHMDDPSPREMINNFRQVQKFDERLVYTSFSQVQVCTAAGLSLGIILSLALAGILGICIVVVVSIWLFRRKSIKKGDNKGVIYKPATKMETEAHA
Sequence of Carbonic anhydrase 13 (Q9D6N1 whole entry): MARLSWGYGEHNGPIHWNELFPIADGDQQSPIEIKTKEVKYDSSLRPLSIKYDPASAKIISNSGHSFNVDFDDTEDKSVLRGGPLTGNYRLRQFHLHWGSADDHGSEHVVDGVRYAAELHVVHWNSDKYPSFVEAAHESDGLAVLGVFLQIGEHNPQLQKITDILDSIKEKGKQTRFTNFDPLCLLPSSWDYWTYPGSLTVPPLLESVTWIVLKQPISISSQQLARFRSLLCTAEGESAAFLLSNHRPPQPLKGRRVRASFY
Sequence of Carbonic anhydrase 5A, mitochondrial (P35218 whole entry): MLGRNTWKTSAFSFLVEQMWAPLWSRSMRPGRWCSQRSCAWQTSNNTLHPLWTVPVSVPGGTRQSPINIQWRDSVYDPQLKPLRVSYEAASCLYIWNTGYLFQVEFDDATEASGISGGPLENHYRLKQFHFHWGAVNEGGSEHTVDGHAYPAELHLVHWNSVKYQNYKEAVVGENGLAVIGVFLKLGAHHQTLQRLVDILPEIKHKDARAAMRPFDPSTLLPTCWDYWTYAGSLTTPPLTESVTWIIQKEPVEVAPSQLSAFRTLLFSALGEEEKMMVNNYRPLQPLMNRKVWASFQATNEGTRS
Sequence of Carbonic anhydrase 5B, mitochondrial (Q9Y2D0 whole entry): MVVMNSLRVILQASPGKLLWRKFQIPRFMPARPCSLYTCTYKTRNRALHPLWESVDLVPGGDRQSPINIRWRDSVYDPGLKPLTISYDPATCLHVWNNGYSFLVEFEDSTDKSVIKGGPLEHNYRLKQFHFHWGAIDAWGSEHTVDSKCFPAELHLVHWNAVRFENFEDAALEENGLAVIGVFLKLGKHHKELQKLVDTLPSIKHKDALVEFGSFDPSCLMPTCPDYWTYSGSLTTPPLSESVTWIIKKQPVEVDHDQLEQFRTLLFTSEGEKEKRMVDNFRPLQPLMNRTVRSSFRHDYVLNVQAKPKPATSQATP
Sequence of Carbonic anhydrase 14 (Q9ULX7 whole entry): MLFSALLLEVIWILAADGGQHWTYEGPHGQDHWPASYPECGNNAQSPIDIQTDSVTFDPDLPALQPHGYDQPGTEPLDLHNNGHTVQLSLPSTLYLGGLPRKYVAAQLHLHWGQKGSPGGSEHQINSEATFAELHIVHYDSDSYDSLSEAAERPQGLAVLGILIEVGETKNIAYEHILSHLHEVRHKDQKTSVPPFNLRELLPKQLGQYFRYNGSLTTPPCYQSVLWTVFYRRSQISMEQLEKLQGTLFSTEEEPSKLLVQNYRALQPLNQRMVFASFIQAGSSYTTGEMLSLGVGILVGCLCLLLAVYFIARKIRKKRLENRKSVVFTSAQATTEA
Sequence of Carbonic anhydrase 1 (P00915 whole entry): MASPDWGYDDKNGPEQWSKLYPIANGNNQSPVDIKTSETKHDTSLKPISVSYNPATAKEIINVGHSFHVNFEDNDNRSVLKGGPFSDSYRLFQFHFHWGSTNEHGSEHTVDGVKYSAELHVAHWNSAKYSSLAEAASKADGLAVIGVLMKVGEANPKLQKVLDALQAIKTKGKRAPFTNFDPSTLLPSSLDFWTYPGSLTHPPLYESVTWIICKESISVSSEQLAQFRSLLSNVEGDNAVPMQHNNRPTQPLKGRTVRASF
Sequence of Carbonic anhydrase 7 (P43166 whole entry): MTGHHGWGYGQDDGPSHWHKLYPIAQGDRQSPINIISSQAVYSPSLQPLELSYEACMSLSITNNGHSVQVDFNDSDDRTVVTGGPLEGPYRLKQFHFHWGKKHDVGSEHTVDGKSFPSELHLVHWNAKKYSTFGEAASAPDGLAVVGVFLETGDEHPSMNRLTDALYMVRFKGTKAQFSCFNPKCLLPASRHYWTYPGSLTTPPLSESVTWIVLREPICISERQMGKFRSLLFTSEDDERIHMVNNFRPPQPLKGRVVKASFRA

## C#CCNc1nc(Nc2ccc(S(N)(=O)=O)cc2)ncc1Br
[1]
  IC50: 331 nM

## COc1cc(O)c(/C=C\C(=O)O)cc1[C@@H](O)CC(C)C
[2]
  IC50: 78 nM
[3]
  IC50: 93100 nM
[4]
  IC50: 48600 nM
[5]
  IC50: > 10 nM
[6]
  IC50: 27900 nM
[7]
  IC50: 54500 nM
[8]
  IC50: 780 nM
[9]
  IC50: 35700 nM
[10]
  IC50: 790 nM
[11]
  IC50: 17700 nM
[12]
  IC50: 9600 nM

## Cc1cn(-c2cc(NC(=O)c3ccc(C)c(Nc4nccc(-c5cccnc5)n4)c3)cc(C(F)(F)F)c2)cn1 [NILOTINIB]
[2]
  Ki: 29.3 nM
[3]
  Ki: 79 nM
[4]
  Ki: 302 nM
[5]
  Ki: 443 nM
[7]
  Ki: 41.9 nM
[8]
  Ki: 223 nM
[9]
  Ki: 461 nM
[10]
  Ki: 4670 nM
[11]
  Ki: 14900 nM
[13]
  Ki: 446 nM
[12]
  Ki: 5490 nM

Reference: ChEMBL document CHEMBL1152378 (Bioorg Med Chem Lett, 2009)
